# Laboratory results taken from US8865724B2, “Preparation of 2-methyl-4-amino-5(substituted-1H-1,2,3-triazolyl)methylpyrimidine derivatives and microbicidal activity thereof” (Central China Normal University, priority 2011, dated 2014).
# Read-outs that look alike come from different tables or passages of the source.
# Tests used:
# wheat scab = assay: microbe, parasite or virus in culture; format: cell-based, Gibberella zeae; details: for inhibition of growth at 100 µg/g: 48 h, read-out: Wheat scab Average inhibition rate (%)
# early blight of tomato = assay: Spawn growth rate on agar plates (Embodiment 9); format: cell-based, Alternaria solania; details: 48 h, testing concentration of 100 μg/g; Table 6
# gray mold of cucumber = assay: Spawn growth rate on agar plates (Embodiment 9); format: cell-based, Botrytis cinerea; details: 48 h; for inhibition of growth at 12.5 µg/g: Concentration 12.5 μg/g; for inhibition of growth at 25 µg/g: Concentration 25 μg/g; for inhibition of growth at 50 µg/g: Concentration 50 μg/g
# [1] = tested on: Rice Sheath Blight Disease (sheath and culm blight of rice); assay: Spawn growth rate on agar plates (Embodiment 9); format: cell-based, Rhizoctonia solani; details: 48 h; for inhibition of growth at 12.5 µg/g: Concentration 12.5 μg/g; for inhibition of growth at 25 µg/g: Concentration 25 μg/g; for inhibition of growth at 50 µg/g: Concentration 50 μg/g
# [2] = tested on: Rice Sheath Blight Disease; assay: Microbicidal activity, spray then strip inoculation (Embodiment 8); details: for pest or weed control at 500 µg/g: Oryza sativa, read-out: Rice Sheath Blight Disease Average inhibition rate (%)
# Method: (§1) (Pseudomonassyringaepv. tomato (Okabe) Young, Dye & Wilkie), Cucumber Angular Leaf Spot, Rice Sheath Blight Disease (Rhizoctonia solani), Corynespora Leaf Spot of Cucumber (Corynespora cassiicola), Downy Mildew of Cucumber (Cucumber Downy Mildew).
# (§2) Testing agents and control agents were sprayed uniformly at A.M. of a sunshine day on the cucumber seminal leaves. After 2 hours, the leaves were inoculated with pathogenic microbes and cultured at humidity. […] Strip inoculation is used for Rice Sheath Blight Disease and phytophthora blight of pepper, in which the liquor was sprayed and after 2 hours, inoculation of strips was performed followed by culturing at humidity. After full occurrence of diseases in the control group, state of illness was examined according to grading standards, and a disease index and inhibition rate were calculated.
# [3] = tested on: Cucumber Angular Leaf Spot; assay: Microbicidal activity on cucumber seedlings, spray then inoculation (Embodiment 8); details: Cucumis sativus, read-out: Cucumber Angular Leaf Spot Average inhibition rate (%)
# Method: as §1, §2
# [4] = tested on: Corynespora Leaf Spot of Cucumber; assay: Microbicidal activity on cucumber seedlings, spray then spore inoculation (Embodiment 8); details: for pest or weed control at 500 µg/g: Corynespora, in Cucumis sativus, read-out: Corynespora Leaf Spot of Cucumber Average inhibition rate (%)
# Method: as §1, §2
# Downy Mildew of Cucumber = assay: as above; details: for pest or weed control at 500 µg/g: Cucumis sativus, read-out: Downy Mildew of Cucumber Average inhibition rate (%)
# Method: as §1, §2
# [5] = testing concentration of 100 μg/g, Table 6, read-out: Gray mold of cucumber Average inhibition rate (%)
# [6] = testing concentration of 100 μg/g, Table 6, read-out: Sheath and culm blight of rice Average inhibition rate (%)
# [7] = testing concentration of 100 μg/g, Table 4, read-out: Gray mold of cucumber Average inhibition rate (%)
# [8] = testing concentration of 500 μg/g
compound,measurement,setting,value
Cc1ncc(Cn2nnc(COc3ccc(Cl)c(C)c3)c2I)c(N)n1 [Compound 25],inhibition of growth at 100 µg/g,wheat scab,62%
same,inhibition of growth at 100 µg/g,early blight of tomato,71%
same,melting point,,215 to 217 °C
same,inhibition of growth at 12.5 µg/g,gray mold of cucumber; Table 8,40%
same,inhibition of growth at 25 µg/g,gray mold of cucumber; Table 8,50%
same,inhibition of growth at 50 µg/g,gray mold of cucumber; Table 8,67%
same,inhibition of growth at 100 µg/g,gray mold of cucumber; [5],96%
same,inhibition of growth at 12.5 µg/g,[1]; Table 8,0%
same,inhibition of growth at 25 µg/g,[1]; Table 8,25%
same,inhibition of growth at 50 µg/g,[1]; Table 8,61%
same,inhibition of growth at 100 µg/g,[1]; [6],97%
Cc1ncc(Cn2nnc(COc3ccc(F)cc3)c2I)c(N)n1 [Compound 82],inhibition of growth at 100 µg/g,wheat scab,48%
same,inhibition of growth at 100 µg/g,early blight of tomato,70%
same,melting point,,160 to 162 °C
same,inhibition of growth at 12.5 µg/g,gray mold of cucumber; Table 8,56%
same,inhibition of growth at 25 µg/g,gray mold of cucumber; Table 8,97%
same,inhibition of growth at 50 µg/g,gray mold of cucumber; Table 8,99%
same,inhibition of growth at 100 µg/g,gray mold of cucumber; [5],96%
same,inhibition of growth at 12.5 µg/g,[1]; Table 8,63%
same,inhibition of growth at 25 µg/g,[1]; Table 8,90%
same,inhibition of growth at 50 µg/g,[1]; Table 8,100%
same,inhibition of growth at 100 µg/g,[1]; [6],96%
Cc1ncc(Cn2nnc(COc3ccc(F)cc3Cl)c2I)c(N)n1 [Compound 27],inhibition of growth at 100 µg/g,wheat scab,39%
same,inhibition of growth at 100 µg/g,early blight of tomato,38%
same,melting point,,187 to 189 °C
same,inhibition of growth at 12.5 µg/g,gray mold of cucumber; Table 8,59%
same,inhibition of growth at 25 µg/g,gray mold of cucumber; Table 8,66%
same,inhibition of growth at 50 µg/g,gray mold of cucumber; Table 8,92%
same,inhibition of growth at 100 µg/g,gray mold of cucumber; [5],99%
same,inhibition of growth at 12.5 µg/g,[1]; Table 8,0%
same,inhibition of growth at 25 µg/g,[1]; Table 8,37%
same,inhibition of growth at 50 µg/g,[1]; Table 8,72%
same,inhibition of growth at 100 µg/g,[1]; [6],94%
Cc1ncc(Cn2nnc(COc3ccc([N+](=O)[O-])cc3)c2I)c(N)n1 [Compound 24],inhibition of growth at 100 µg/g,wheat scab,68%
same,inhibition of growth at 100 µg/g,early blight of tomato,66%
same,melting point,,215 to 217 °C
same,inhibition of growth at 100 µg/g,gray mold of cucumber; [5],84%
same,inhibition of growth at 100 µg/g,[1]; [6],97%
Cc1ncc(Cn2cc(COc3ccc([N+](=O)[O-])cc3[N+](=O)[O-])nn2)c(N)n1 [Compound 8],pest or weed control at 500 µg/g,[2],70%
same,pest or weed control at 500 µg/g,[3],60%
same,pest or weed control at 500 µg/g,[4],70%
same,melting point,,210 to 211 °C
same,inhibition of growth at 100 µg/g,gray mold of cucumber; [7],54%
same,pest or weed control at 500 µg/g,Downy Mildew of Cucumber,60%
Cc1ncc(Cn2cc(COc3ccc(Cl)c(C)c3)nn2)c(N)n1 [Compound 11],pest or weed control at 500 µg/g,[2],70%
same,pest or weed control at 500 µg/g,[3],60%
same,inhibition of growth at 100 µg/g,wheat scab,54%
same,pest or weed control at 500 µg/g,[4],65%
same,melting point,,142 to 143 °C
same,inhibition of growth at 100 µg/g,gray mold of cucumber; [7],67%
same,pest or weed control at 500 µg/g,Downy Mildew of Cucumber,50%
"COC(=O)NC(=S)Nc1ccccc1NC(=S)NC(=O)OC [Thiophanate-methyl, reference compound]",pest or weed control at 500 µg/g,[2],85%
same,pest or weed control at 500 µg/g,[4],80%
same,pest or weed control at 500 µg/g,Downy Mildew of Cucumber,20%
Cc1ncc(Cn2nnc(COc3ccc(C#N)cc3)c2I)c(N)n1 [Compound 31],inhibition of growth at 100 µg/g,wheat scab,58%
same,inhibition of growth at 100 µg/g,early blight of tomato,70%
same,melting point,,199 to 201 °C
same,inhibition of growth at 12.5 µg/g,gray mold of cucumber; Table 8,75%
same,inhibition of growth at 25 µg/g,gray mold of cucumber; Table 8,87%
same,inhibition of growth at 50 µg/g,gray mold of cucumber; Table 8,91%
same,inhibition of growth at 100 µg/g,gray mold of cucumber; [5],95%
same,inhibition of growth at 12.5 µg/g,[1]; Table 8,78%
same,inhibition of growth at 25 µg/g,[1]; Table 8,88%
same,inhibition of growth at 50 µg/g,[1]; Table 8,96%
same,inhibition of growth at 100 µg/g,[1]; [6],97%
CCOC(=O)c1ccc(OCc2cn(Cc3cnc(C)nc3N)nn2)cc1 [Compound 3],pest or weed control at 500 µg/g,[2],80%
same,pest or weed control at 500 µg/g,[3],60%
same,pest or weed control at 500 µg/g,[4],80%
same,melting point,,190 to 192 °C
same,inhibition of growth at 100 µg/g,gray mold of cucumber; [7],70%
same,pest or weed control at 500 µg/g,Downy Mildew of Cucumber,60%
COc1ccc(OCc2cn(Cc3cnc(C)nc3N)nn2)cc1 [Compound 13],pest or weed control at 500 µg/g,[2],70%
same,pest or weed control at 500 µg/g,[3],60%
same,pest or weed control at 500 µg/g,[4],80%
same,melting point,,115 to 117 °C
same,inhibition of growth at 100 µg/g,gray mold of cucumber; [7],49%
same,pest or weed control at 500 µg/g,Downy Mildew of Cucumber,50%
jingangmycin [reference compound],Rice Sheath Blight Disease Average inhibition rate (%),[2]; [8],70%
same,Corynespora Leaf Spot of Cucumber Average inhibition rate (%),[4]; [8],70%
same,Downy Mildew of Cucumber Average inhibition rate (%),Downy Mildew of Cucumber; [8],70%
Cc1ncc(Cn2cc(COc3ccccc3[N+](=O)[O-])nn2)c(N)n1 [Compound 16],pest or weed control at 500 µg/g,[2],70%
same,pest or weed control at 500 µg/g,[3],70%
same,inhibition of growth at 100 µg/g,wheat scab,63%
same,pest or weed control at 500 µg/g,[4],80%
same,melting point,,184 to 185 °C
same,inhibition of growth at 100 µg/g,gray mold of cucumber; [7],82%
same,pest or weed control at 500 µg/g,Downy Mildew of Cucumber,50%
Cc1ncc(Cn2cc(COc3ccc(F)cc3Cl)nn2)c(N)n1 [Compound 6],pest or weed control at 500 µg/g,[2],70%
same,pest or weed control at 500 µg/g,[3],65%
same,pest or weed control at 500 µg/g,[4],90%
same,melting point,,169 to 171 °C
same,inhibition of growth at 100 µg/g,gray mold of cucumber; [7],63%
same,pest or weed control at 500 µg/g,Downy Mildew of Cucumber,30%
Cc1ncc(Cn2nnc(COc3ccccc3)c2I)c(N)n1 [Compound 23],inhibition of growth at 100 µg/g,wheat scab,59%
same,inhibition of growth at 100 µg/g,early blight of tomato,57%
same,inhibition of growth at 100 µg/g,gray mold of cucumber; [5],88%
same,inhibition of growth at 100 µg/g,[1]; [6],96%
COC(=O)Cc1ccc(OCc2cn(Cc3cnc(C)nc3N)nn2)cc1 [Compound 9],pest or weed control at 500 µg/g,[2],90%
same,pest or weed control at 500 µg/g,[3],60%
same,pest or weed control at 500 µg/g,[4],60%
same,melting point,,142 to 143 °C
same,inhibition of growth at 100 µg/g,gray mold of cucumber; [7],79%
same,pest or weed control at 500 µg/g,Downy Mildew of Cucumber,80%
"CC1COC(Cn2cncn2)(c2ccc(Oc3ccc(Cl)cc3)cc2Cl)O1 (stereo not drawn) [Difenoconazole, reference compound]",inhibition of growth at 100 µg/g,wheat scab,98%
same,Wheat scab (inhibition),"wheat scab; Concentration 100 μg/g, Table 7",95%
same,inhibition of growth at 100 µg/g,early blight of tomato,100%
same,inhibition of growth at 100 µg/g,"gray mold of cucumber; Concentration 100 μg/g, Table 7, read-out: Gray mold of cucumber (inhibition)",86%
same,inhibition of growth at 100 µg/g,"gray mold of cucumber; Concentration 100 μg/g, Table 8, read-out: Gray mold of cucumber (inhibition)",96%
same,inhibition of growth at 100 µg/g,gray mold of cucumber; [7],73%
same,inhibition of growth at 100 µg/g,gray mold of cucumber; [5],96%
same,inhibition of growth at 100 µg/g,"[1]; Concentration 100 μg/g, Table 7, read-out: Sheath and culm blight of rice (inhibition)",91%
same,inhibition of growth at 100 µg/g,"[1]; Concentration 100 μg/g, Table 8, read-out: Sheath and culm blight of rice (inhibition)",100%
same,inhibition of growth at 100 µg/g,[1]; [6],100%
Cc1ncc(Cn2cc(CNC(=O)c3ccc([N+](=O)[O-])cc3Cl)nn2)c(N)n1 [Compound 51],melting point,,> 260 °C
Cc1ncc(Cn2cc(COc3ccccc3)nn2)c(N)n1 [Compound 12],pest or weed control at 500 µg/g,[2],80%
same,pest or weed control at 500 µg/g,[3],60%
same,pest or weed control at 500 µg/g,[4],70%
same,melting point,,132 to 133 °C
same,inhibition of growth at 100 µg/g,gray mold of cucumber; [7],53%
same,pest or weed control at 500 µg/g,Downy Mildew of Cucumber,70%
Cc1ncc(Cn2cc(CNC(=O)COc3ccc(Cl)cc3)nn2)c(N)n1 [Compound 71],melting point,,124 to 125 °C
Cc1ncc(Cn2cc(COC(=O)COc3ccccc3[N+](=O)[O-])nn2)c(N)n1 [Compound 65],melting point,,158 to 160 °C
"COc1ccc(C(=CC(=O)N2CCOCC2)c2ccc(Cl)cc2)cc1OC [Dimethomorph, reference compound]",pest or weed control at 500 µg/g,[2],90%
same,pest or weed control at 500 µg/g,[4],70%
same,pest or weed control at 500 µg/g,Downy Mildew of Cucumber,90%
Cc1ncc(Cn2cc(CNC(=O)c3ccc(F)cc3)nn2)c(N)n1 [Compound 44],melting point,,211 to 212 °C
Cc1ncc(Cn2nnc(COC(=O)c3ccc(Cl)cc3)c2I)c(N)n1 [Compound 91],melting point,,192 to 193 °C
Cc1ncc(Cn2nnc(COc3cccc(C(F)(F)F)c3)c2I)c(N)n1 [Compound 81],melting point,,146 to 148 °C
Cc1ncc(Cn2cc(CNC(=O)c3ccccc3Cl)nn2)c(N)n1 [Compound 49],melting point,,217 to 218 °C
Cc1ncc(Cn2nnc(COC(=O)c3ccc(F)cc3)c2I)c(N)n1 [Compound 94],melting point,,207 to 209 °C
Cc1ccc(C(=O)NCc2nnn(Cc3cnc(C)nc3N)c2I)cc1 [Compound 106],melting point,,180 to 182 °C
Cc1ncc(Cn2cc(COC(=O)c3ccccc3Br)nn2)c(N)n1 [Compound 40],melting point,,174 to 176 °C
Cc1ncc(Cn2cc(CNC(=O)COc3ccc([N+](=O)[O-])cc3Cl)nn2)c(N)n1 [Compound 72],melting point,,183 to 184 °C
Cc1ncc(Cn2cc(CNC(=O)c3ccccc3Br)nn2)c(N)n1 [Compound 52],melting point,,233 to 234 °C
Cc1ncc(Cn2cc(COc3ccc([N+](=O)[O-])cc3)nn2)c(N)n1 [Compound 1],pest or weed control at 500 µg/g,[2],90%
same,pest or weed control at 500 µg/g,[3],60%
same,pest or weed control at 500 µg/g,[4],50%
same,pest or weed control at 500 µg/g,Downy Mildew of Cucumber,75%
